Data taken from the NIST ThermoML archive (doi:10.1021/acs.jced.8b00692).
Where “and” joins values, the source holds several entries; their conditions need not be identical. Equal entries are not always repeated.

Assays:
[1] = xn = mol fraction of the nth substance listed; settings: 102 kPa, Liquid, x2 = 0; for viscosity: Concentric cylinders viscometry; for mass density: Vibrating tube method; for speed of sound: Frequency=3 MHz, Single path-length method
[2] = Liquid; for viscosity: Concentric cylinders viscometry; for speed of sound: Single path-length method; for mass density: Vibrating tube method

CCCCCCCCCCCCCCCC [hexadecane] + CCCCCCCCC1CCCCC1
[1]
Settings | mass density [kg/m3] | viscosity [mPa·s]
293.15 K | 773.37 | 3.47
303.15 K | 766.43 | 2.76
313.15 K | 759.51 | 2.24
323.15 K | 752.61 | 1.86
333.15 K | 745.69 | 1.56
343.15 K | 738.8 | 1.35
353.15 K | 731.9 | 1.15
363.15 K | 724.9 | 1.02
373.15 K | 717.9 | 0.885

CCCCCCCC1CCCCC1 [heptylcyclohexane]
[2], 102 kPa
Settings | mass density [kg/m3] | viscosity [mPa·s]
293.15 K | 810.99 | 2.8
303.15 K | 803.96 | 2.26
313.15 K | 796.93 | 1.86
323.15 K | 789.89 | 1.56
333.15 K | 782.83 | 1.33
343.15 K | 775.8 | 1.15
353.15 K | 768.7 | 0.993
363.15 K | 761.6 | 0.892
373.15 K | 754.4 | 0.776

[2], 102 kPa, Frequency=3 MHz
Settings | speed of sound [m/s]
293.15 K | 1374.4
303.15 K | 1336.1
313.15 K | 1298.7
323.15 K | 1262.1
333.15 K | 1226.5

CCCC1CCCCC1 [1-cyclohexylpropane]
[2], 102 kPa
Settings | mass density [kg/m3] | viscosity [mPa·s]
293.15 K | 793.54 | 0.996
303.15 K | 785.73 | 0.86
313.15 K | 777.9 | 0.75
323.15 K | 770.04 | 0.663
333.15 K | 762.12 | 0.584
343.15 K | 754.2 | 0.544
353.15 K | 746.1 | 0.477
363.15 K | 738 | 0.452

[2], 102 kPa, Frequency=3 MHz
Settings | speed of sound [m/s]
293.15 K | 1307.8
303.15 K | 1266.2
313.15 K | 1225.6
323.15 K | 1185.9
333.15 K | 1147.3

CCCCCCCCCCCCCCCC [hexadecane] + CCCCCCCCCC1CCCCC1
[1]
Settings | mass density [kg/m3] | viscosity [mPa·s]
293.15 K | 773.37 | 3.47
303.15 K | 766.43 | 2.76
313.15 K | 759.51 | 2.24
323.15 K | 752.61 | 1.86
333.15 K | 745.69 | 1.56
343.15 K | 738.8 | 1.35
353.15 K | 731.9 | 1.15
363.15 K | 724.9 | 1.02
373.15 K | 717.9 | 0.885

CCCCCCCCCCC1CCCCC1 [decylcyclohexane]
[2], 102 kPa
Settings | mass density [kg/m3] | viscosity [mPa·s]
293.15 K | 818.55 | 5.32
303.15 K | 811.78 | 4.09
313.15 K | 805.02 | 3.23
323.15 K | 798.27 | 2.62
333.15 K | 791.5 | 2.16
343.15 K | 784.8 | 1.82
353.15 K | 778 | 1.55
363.15 K | 771.2 | 1.34
373.15 K | 764.4 | 1.17

[2], 102 kPa, Frequency=3 MHz
Settings | speed of sound [m/s]
293.15 K | 1406.7
303.15 K | 1369.4
313.15 K | 1333
323.15 K | 1297.5
333.15 K | 1262.9

CCCCCCCCCCCCCCCC [hexadecane] + CCCC1CCCCC1
[1]
Settings | mass density [kg/m3] | speed of sound [m/s] | viscosity [mPa·s]
293.15 K | 773.37 | 1357.4 | 3.47
303.15 K | 766.43 | 1319.6 | 2.76
313.15 K | 759.51 | 1282.9 | 2.24
323.15 K | 752.61 | 1247 | 1.86
333.15 K | 745.69 | 1212.1 | 1.56
343.15 K | 738.78 | – | 1.35
353.15 K | 731.9 | – | 1.15
363.15 K | 724.9 | – | 1.02

CCCCCCCCCCCCCCCC [hexadecane] + CCCCCCCCCCC1CCCCC1
[1]
Settings | mass density [kg/m3] | viscosity [mPa·s]
293.15 K | 773.37 | 3.47
303.15 K | 766.43 | 2.76
313.15 K | 759.51 | 2.24
323.15 K | 752.61 | 1.86
333.15 K | 745.69 | 1.56
343.15 K | 738.8 | 1.35
353.15 K | 731.9 | 1.15
363.15 K | 724.9 | 1.02
373.15 K | 717.9 | 0.885

CCCCCCCCCCCCC1CCCCC1 [dodecylcyclohexane]
[2], 102 kPa
Settings | mass density [kg/m3] | viscosity [mPa·s]
293.15 K | 822.31 | 7.76
303.15 K | 815.65 | 5.81
313.15 K | 809.01 | 4.48
323.15 K | 802.37 | 3.55
333.15 K | 795.74 | 2.88
343.15 K | 789.1 | 2.39
353.15 K | 782.5 | 2.01
363.15 K | 775.9 | 1.72
373.15 K | 769.2 | 1.48

[2], 102 kPa, Frequency=3 MHz
Settings | speed of sound [m/s]
293.15 K | 1423.3
303.15 K | 1386.3
313.15 K | 1350.4
323.15 K | 1315.2
333.15 K | 1281.1

CCCCCCCCCCCCCCCC [hexadecane] + CCCCCCC1CCCCC1
[1]
Settings | mass density [kg/m3] | viscosity [mPa·s]
293.15 K | 773.37 | 3.47
303.15 K | 766.43 | 2.76
313.15 K | 759.51 | 2.24
323.15 K | 752.61 | 1.86
333.15 K | 745.69 | 1.56
343.15 K | 738.8 | 1.35
353.15 K | 731.9 | 1.15
363.15 K | 724.9 | 1.02

CCCCCCCCC1CCCCC1 [octylcyclohexane]
[2], 102 kPa
Settings | mass density [kg/m3] | viscosity [mPa·s]
293.15 K | 814.14 | 3.52
303.15 K | 807.22 | 2.79
313.15 K | 800.29 | 2.27
323.15 K | 793.36 | 1.88
333.15 K | 786.42 | 1.58
343.15 K | 779.5 | 1.36
353.15 K | 772.5 | 1.16
363.15 K | 765.5 | 1.04
373.15 K | 758.5 | 0.899

[2], 102 kPa, Frequency=3 MHz
Settings | speed of sound [m/s]
293.15 K | 1387
303.15 K | 1349.1
313.15 K | 1312.1
323.15 K | 1275.9
333.15 K | 1240.5

CCCCCCCCCCCCCCCC [hexadecane] + CCCCCCCCCCCCC1CCCCC1
[1]
Settings | mass density [kg/m3] | viscosity [mPa·s]
293.15 K | 773.37 | 3.47
303.15 K | 766.43 | 2.76
313.15 K | 759.51 | 2.24
323.15 K | 752.61 | 1.86
333.15 K | 745.69 | 1.56
343.15 K | 738.8 | 1.35
353.15 K | 731.9 | 1.15
363.15 K | 724.9 | 1.02
373.15 K | 717.9 | 0.885

CCCCCCCCCCCCCCCC [hexadecane]
[2]
Settings | mass density, 102 kPa | speed of sound, 101.33 kPa [m/s] | viscosity, 102 kPa [mPa·s]
293.15 K | 773.37 kg/m3 | 1357.4 | 3.47
303.15 K | 766.43 kg/m3 | 1319.6 | 2.76
313.15 K | 759.51 kg/m3 | 1282.9 | 2.24
323.15 K | 752.61 kg/m3 | 1247 | 1.86
333.15 K | 745.69 kg/m3 | 1212.1 | 1.56
343.15 K | 738.78 kg/m3 and 738.8 kg/m3 | – | 1.35
353.15 K | 731.9 kg/m3 | – | 1.15
363.15 K | 724.9 kg/m3 | – | 1.02
373.15 K | 717.9 kg/m3 | – | 0.885

CCCCCCCCCCCCCCCC [hexadecane] + CCCCCCCC1CCCCC1
[1]
Settings | mass density [kg/m3] | viscosity [mPa·s]
293.15 K | 773.37 | 3.47
303.15 K | 766.43 | 2.76
313.15 K | 759.51 | 2.24
323.15 K | 752.61 | 1.86
333.15 K | 745.69 | 1.56
343.15 K | 738.8 | 1.35
353.15 K | 731.9 | 1.15
363.15 K | 724.9 | 1.02
373.15 K | 717.9 | 0.885

CCCCCCCCCC1CCCCC1 [nonylcyclohexane]
[2], 102 kPa
Settings | mass density [kg/m3] | viscosity [mPa·s]
293.15 K | 816.41 | 4.34
303.15 K | 809.57 | 3.39
313.15 K | 802.74 | 2.72
323.15 K | 795.8 | 2.22
333.15 K | 789.05 | 1.85
343.15 K | 782.2 | 1.57
353.15 K | 775.4 | 1.35
363.15 K | 768.5 | 1.2
373.15 K | 761.6 | 1.03

[2], 102 kPa, Frequency=3 MHz
Settings | speed of sound [m/s]
293.15 K | 1397.2
303.15 K | 1359.6
313.15 K | 1322.9
323.15 K | 1287.1
333.15 K | 1252.2

CCCCCCC1CCCCC1 [hexylcyclohexane]
[2], 102 kPa
Settings | mass density [kg/m3] | viscosity [mPa·s]
293.15 K | 807.71 | 2.2
303.15 K | 800.56 | 1.81
313.15 K | 793.4 | 1.51
323.15 K | 786.22 | 1.29
333.15 K | 779.02 | 1.09
343.15 K | 771.8 | 0.964
353.15 K | 764.6 | 0.847
363.15 K | 757.3 | 0.758

[2], 102 kPa, Frequency=3 MHz
Settings | speed of sound [m/s]
293.15 K | 1361
303.15 K | 1322.1
313.15 K | 1284.2
323.15 K | 1247.1
333.15 K | 1211

CCCCCC1CCCCC1 [pentylcyclohexane]
[2], 102 kPa
Settings | mass density [kg/m3] | viscosity [mPa·s]
293.15 K | 804.11 | 1.7
303.15 K | 796.8 | 1.42
313.15 K | 789.47 | 1.21
323.15 K | 782.12 | 1.04
333.15 K | 774.74 | 0.895
343.15 K | 767.3 | 0.799
353.15 K | 759.9 | 0.709
363.15 K | 752.4 | 0.637

[2], 102 kPa, Frequency=3 MHz
Settings | speed of sound [m/s]
293.15 K | 1345.9
303.15 K | 1306.4
313.15 K | 1267.8
323.15 K | 1230.1
333.15 K | 1193.4
